Assay results from patent publication EP1612281A2, “Methods for assessing patients with acute myeloid leukemia” (Veridex, LLC, priority 2004, dated 2006).

System: patients with relapsed or refractory AML
Test: Open label, multicenter, non-comparative phase 2 clinical study of tipifarnib with gene expression profiling
Type: in vivo, human
Protocol: The current study was part of an open label, multicenter, non-comparative phase 2 clinical study in which patients with relapsed or refractory AML (Harousseau et al. (2003)) were treated with tipifarnib at a starting oral dose of 600 mg bid for the first 21 consecutive days of each 28-day cycle. Patients were enrolled into 2 cohorts, those with relapsed AML and those with refractory AML. A total of 252 patients (135 relapsed and 117 refractory) were treated. Eighty patients chose to provide bone marrow samples for RNA microarray analysis, for which a separate informed consent was required. […] Complete remission with incomplete platelet recovery was defined similarly, except for a platelet count less than 100,000/µL sufficient to ensure transfusion independence. Partial remission was defined as at least a 50% decrease in bone marrow blasts with partial neutrophil (>500/µL) and platelet count (>50,000/µL) recovery. Response had to be confirmed at least 4 weeks after first documentation.
The current study was an open label, multicenter, non-comparative Phase 2 study investigating the efficacy and safety of farnesyl transferase inhibition with tipifarnib administered as a single agent, at a starting oral dose of 600 mg b.i.d. for the first 21 days of each 28 day cycle in AML. Subjects were enrolled into two cohorts, those with relapsed AML and those with refractory AML. A total of 252 patients (135 relapsed and 117 refractory) were treated.

Cn1cncc1[C@@](N)(c1ccc(Cl)cc1)c1ccc2c(c1)c(-c1cccc(Cl)c1)cc(=O)n2C [tipifarnib]
response rate (current patient population (10/54), stable disease patients excluded): 18%
response rate (entire group of 58 profiled patients (14/58), response includes objective response, hematological response or stable disease): 24%
response rate (patients with low expression of AKAP13 (8/26), stable disease patients excluded): 31%
response rate (patients with low expression of the AKAP13 gene (13/30), LOOCV, 58 samples): 43%
response rate (patients with the 3-gene signature (AHR, AKAP13, MINA53) (12/25), LOOCV): 48%
